Values quoted from earlier work as cited in patent US5716935A, “Use of antiotensin II analogs in tissue repair” (University of Southern California, priority 1996, dated 1998).

How the values were obtained:
aminopeptidase = conditions: reported in literature
wound tissue = conditions: applied to wound tissue; U.S. Pat. No. 5,015,629

| Compound | cleavage by aminopeptidase (aminopeptidase) | rate of wound healing (wound tissue) |
| --- | --- | --- |
| CC[C@H](C)[C@H](NC(=O)[C@H](Cc1ccc(O)cc1)NC(=O)[C@@H](NC(=O)[C@H](CCCNC(=N)N)NC(=O)CNC)C(C)C)C(=O)N[C@@H](Cc1cnc[nH]1)C(=O)N1CCC[C@H]1C(=O)N[C@@H](Cc1ccccc1)C(=O)O [Analog 4, Sar-Arg-Val-Tyr-Ile-His-Pro-Phe] | resistant | – |
| Asp-Arg-Val-Tyr-Ile-His-Pro-Phe [angiotensin II, octapeptide present in humans and other species; known pressor agent] | – | significantly increases |
